Patent publication US20020064790A1, “Design of drugs involving receptor-ligand-DNA interactions” (priority 1993, published 2002)
“Also recorded” adds a separate entry of the source. Counter-ions that a name gives are not always drawn. Like-named read-outs stand apart in the source and are kept apart here.

Legend:
estrogen receptor [1] = molecular target: T1, estrogen receptor (Homo sapiens, UniProt P03372); assay: Estrogen receptor binding
T1 sequence (P03372 1-595): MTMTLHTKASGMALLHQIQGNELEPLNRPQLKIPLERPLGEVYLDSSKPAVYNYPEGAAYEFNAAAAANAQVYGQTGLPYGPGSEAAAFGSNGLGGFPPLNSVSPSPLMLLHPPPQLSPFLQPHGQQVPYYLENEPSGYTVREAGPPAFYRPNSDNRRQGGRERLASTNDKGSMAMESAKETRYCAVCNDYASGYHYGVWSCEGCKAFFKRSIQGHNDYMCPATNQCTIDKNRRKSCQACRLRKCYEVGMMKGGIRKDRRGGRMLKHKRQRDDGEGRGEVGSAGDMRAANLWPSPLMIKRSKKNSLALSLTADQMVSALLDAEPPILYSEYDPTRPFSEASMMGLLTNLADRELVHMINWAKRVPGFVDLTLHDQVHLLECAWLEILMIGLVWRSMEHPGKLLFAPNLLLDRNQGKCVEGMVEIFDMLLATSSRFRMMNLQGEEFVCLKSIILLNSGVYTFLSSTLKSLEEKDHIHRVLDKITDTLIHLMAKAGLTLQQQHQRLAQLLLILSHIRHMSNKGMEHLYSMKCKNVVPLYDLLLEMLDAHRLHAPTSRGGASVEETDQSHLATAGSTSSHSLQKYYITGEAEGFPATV

DNA = assay: Binding of piperidinedione to DNA
Source text: (§1) The mode of action of these piperidinediones is still not proven. […] At the same time, direct binding of such anti-estrogens to DNA appears to be weak. Taken as a whole, these findings support the possibility of a weak interaction of the piperidinediones with both DNA and the estrogen receptor, involving a receptor mediated insertion of the ligand into DNA.

[2] = tested on: MCF-7 (E-3) human breast cancer cells; assay: Inhibition of estrogen stimulated growth of MCF-7 (E-3) cells, 9 day model; assay type: cell-based; settings: for IC50: MCF-7 (E-3), estrogen stimulated growth, 9 day model; for inhibition of estrogen stimulated cell growth: MCF-7 (E-3) cells
Nb2 lymphoma cells = assay: DNA synthesis measured by thymidine incorporation; assay type: cell-based, rat
Source text: as §1

estrogen receptor [3] = molecular target: T1, estrogen receptor; settings: cited from earlier work
[4] = tested on: uterotropic (estrogenic) activity; settings: relative to estradiol, Peters et al.; cited from earlier work
[5] = tested on: MCF-7 human breast cancer cells; assay: MCF-7 cell growth (cell number) with SGI compounds; assay type: cell-based; settings: dose 10^−8 M; control 252,197 cells
rat Nb2 lymphoma cells = assay: Inhibition of prolactin stimulated growth of Nb2 lymphoma cells; assay type: cell-based
[6] = tested on: various animal and human tumor cells; assay: Growth inhibition in various animal and human tumor cells; assay type: cell-based
Protocol: (§2) These synthetic derivatives were assessed for biological potency by measuring their growth inhibitory effects on various cell lines using concentrations of […] based on the reported IC50 of 3-phenylacetylamino-2,6 piperidinedione in Nb2 cells.
3-Phenylacetylamino-2,6-piperidinedione (A10) is a modified amino-acid derivative, which was originally isolated from freeze-dried human urine. […] The focus of the following study was to develop more- potent analogs. […] It was observed that placing a hydroxyl group at the para position of the phenyl group of A10 would enable a second hydrogen bond to form thereby substantially enhancing fit as reported by Hendry et al., J. Steroid Biochem. Molec. Biol. 48:495-505 (1994), the teachings of which are hereby incorporated by reference in their entirety.

[7] = tested on: human leukemia (K652) cells; assay: Growth inhibition in human leukemia K562 cells; assay type: cell-based
YAK lymphoma cells = assay: Growth inhibition in YAK lymphoma cells; assay type: cell-based; settings: rank among derivatives
Protocol: as §2

[8] = tested on: uterotropic (estrogenic) activity; assay: Uterotropic (estrogenic) activity in vivo
androgenic activity = settings: published findings by Hilgar and Hummel; cited from earlier work

O=C1CCC(NC(=O)Cc2ccccc2)C(=O)N1 (stereo not drawn) [3-phenylacetylamino-2,6-piperidinedione]
binding for the estrogen receptor (estrogen receptor [1]): neither 3-phenylacetylamino-2,6-piperidinedione nor phydroxy-3-phenylacetylamino-2,6-piperidinedione exhibited appreciable binding
covalent adducts with DNA (DNA): No covalent adducts
binding to DNA (DNA; in comparison to classical intercalating drugs): weak and reversible
IC50 ([2]; Homo sapiens, MCF7, 216 h): 3 mM
inhibition of estrogen stimulated cell growth [2]: inhibited
DNA synthesis measured by thymidine incorporation (Nb2 lymphoma cells): significantly inhibited

C[C@@H]1Cc2cc(O)ccc2[C@@H]2[C@@H]1[C@@H]1CC[C@H](O)[C@@]1(C)C[C@@H]2O[N+](=O)[O-] [7α-methylestradiol-11β-nitrate ester, 3,11β, 17β-trihydroxy-7α-methylestra-1,3, 5 (10)-triene 11-nitrate ester]
binding to the estrogen receptor relative to estradiol (estrogen receptor [3]): less than 6 % of the binding of estradiol
uterotropic activity [4]: considerably greater than that of estradiol

CC/C(=C(\c1ccccc1)c1ccc(OCCN(C)C)cc1)c1ccccc1 [tamoxifen citrate]
number of MCF-7 cells [5]: 187,759 cells

p-hydroxy-3-phenylacetylamino-2,6-piperidinedione
binding for the estrogen receptor (estrogen receptor [1]): neither 3-phenylacetylamino-2,6-piperidinedione nor phydroxy-3-phenylacetylamino-2,6-piperidinedione exhibited appreciable binding
growth inhibition over concentration range (rat Nb2 lymphoma cells; Nb2 lymphoma cells, 10^−4 M to 10^−3 M): more active in Nb2 lymphoma cells than 3-phenylacetylamino-2,6 piperidinedione
inhibition of prolactin stimulated growth (rat Nb2 lymphoma cells; rat Nb2 lymphoma cells): greatest activity
inhibition of estrogen stimulated cell growth [2]: inhibited
IC50 [2]: 0.007 mM
potency in tumor cell growth inhibition relative to A10 [6]: most potent compound
potency in tumor cell growth inhibition relative to A10 ([6]; listed as p-OH-A10): as much as an order of magnitude more active than A10
dose response comparison of growth inhibition ([7]; 10^−5 to 10^−2 M): more active than the unsubstituted compound
growth inhibitory effect ([7]; rank among analogs): most active analog
growth inhibitory effect (YAK lymphoma cells): most active derivative

C[C@]12CC[C@H]3c4ccc(O)cc4CC[C@H]3[C@@H]1CC[C@@H]2O [9β-estradiol]
estrogenic (uterotropic) activity in vivo [8]: inactive; also recorded: little uterotropic activity

O=C1CCC(NC(=O)Cc2ccc(F)cc2)C(=O)N1 (stereo not drawn) [p-fluoro derivative]
potency in tumor cell growth inhibition relative to A10 [6]: lack of increased potency

C[C@]12CCC(=O)C[C@@H]1CC[C@@H]1[C@@H]2CC[C@]2(C)[C@@H](O)CC[C@@H]12 [5α-dihydrotestosterone]
androgenic activity (androgenic activity): highly active androgen

C[C@]12CCC(=O)C[C@@H]1CC[C@@H]1[C@@H]2CC[C@]2(C)[C@@H](O)CC[C@@H]12 [5β-dihydrotestosterone]
androgenic activity (androgenic activity): essentially inactive

CC(=O)O[C@H]1C[C@]2(C)[C@@H](O)CC[C@H]2[C@@H]2CCc3cc(O)ccc3[C@H]21 [11β-acetoxyestradiol]
estrogenic (uterotropic) activity in vivo [8]: more active than estradiol
